Source: ChEMBL document CHEMBL4043113, “A novel antihypertension agent, sargachromenol D from marine brown algae, Sargassum siliquastrum, exerts dual action as an L-type Ca2+ channel blocker and endothelin A/B2 receptor antagonist” (Bioorg Med Chem, 2017)
Active and inactive are the calls of the source. The calls are words filed in the database; no cut-off is given here.

Legend:
Oryctolagus cuniculus = species: Oryctolagus cuniculus; experiment: (§1) Antagonist activity at New Zealand rabbit endothelin A/B2 receptor assessed as dilation of endothelin-1 induced basilary artery contraction measured after 20 mins
[1] = Antagonist activity at New Zealand rabbit L-type calcium channel assessed as dilation of K+-depolarization induced basilary artery contraction measured after 20 mins; set-up: species or system Oryctolagus cuniculus
[2] = as §1; set-up: species or system Oryctolagus cuniculus

Row | Structure (SMILES) | Activity (Oryctolagus cuniculus) | EC50 [1] [nM] | EC50 [2] [nM]
1 | CC(=O)CC/C=C(\C)CCC/C(C)=C\C(=O)CC(C)C | inactive | – | –
2 | COCCOC(=O)C1=C(C)NC(C)=C(C(=O)OC(C)C)C1c1cccc([N+](=O)[O-])c1 (stereo unspecified) [NIMODIPINE] | – | 520 | –
3 | COc1ccccc1Oc1c(NS(=O)(=O)c2ccc(C(C)(C)C)cc2)nc(-c2ncccn2)nc1OCCO [BOSENTAN] | – | – | 530

The remaining lines, values ahead:

Row | Activity (Oryctolagus cuniculus) | EC50 [1] [nM] | EC50 [2] [nM] | Structure (SMILES)
4 | inactive | 3520 | – | C/C(=C\CCC(C)O)CCC/C(C)=C/C(=O)CC(C)C (stereo unspecified)
5 | inactive | – | – | CC(=O)CC/C=C(\C)CCC/C(C)=C/C(=O)CC(C)C
